Values quoted from earlier work as cited in patent US20220184095A1 (Mylan Specialty L.P., priority 2019, published 2022).

Conditions: orally delivered, humans

## Cc1cnc(NC(=O)C2=C(O)c3ccccc3S(=O)(=O)N2C)s1 [meloxicam, 4-hydroxy-2-methyl-N-(5-methyl-2-thiazolyl)-2H-1,2-benzothiazine-3-carboxamide-1,1-dioxide]
  Tmax (time to reach maximum concentration): 4 to 6 h
  time to reach the therapeutic concentration that enables the onset of action: 2 to 3 h
